Source: patent US4820694A, “Modifications of 3-O-demethylmycinose in macrocin and lactenocin” (priority 1986, dated 1989)
Values after ≈ are worked out from the molar mass of the structure shown. Read-outs that look alike come from different tables or passages of the source.

What was measured:
[1] = test system: Streptococcus Group D X66; assay: standard agar-dilution MIC assay; assay type: cell-based; details: read-out: MIC
Experimental: (§1) The MIC's in Table III were determined by standard agar-dilution assays. The MIC's in Table IV were obtained using conventional brothdilution microtiter tests.

[2] = test system: Klebsiella pneumoniae X68; assay: standard agar-dilution MIC assay; assay type: cell-based; details: Klebsiella pneumoniae, X68; agar-dilution; read-out: MIC
Experimental: as §1

[3] = test system: Staphylococcus aureus X1.1; assay: standard agar-dilution MIC assay; assay type: cell-based; details: Staphylococcus aureus, X1.1
Experimental: as §1

[4] = test system: Streptococcus pyogenes C203; assay: standard agar-dilution MIC assay; assay type: cell-based; details: Streptococcus pyogenes, C203
Experimental: as §1

[5] = test system: Staphylococcus epidermidis 222; assay: standard agar-dilution MIC assay; assay type: cell-based; details: Staphylococcus epidermidis, 222
Experimental: as §1

Escherichia coli EC14 = assay: standard agar-dilution MIC assay; assay type: cell-based
Experimental: as §1

[6] = test system: Staphylococcus aureus V41; assay: standard agar-dilution MIC assay; assay type: cell-based; details: Staphylococcus aureus, V41
Experimental: as §1

[7] = test system: Haemophilus influenzae C.L.; assay: standard agar-dilution MIC assay; assay type: cell-based; details: Haemophilus influenzae
Experimental: as §1

[8] = test system: Pseudomonas aeruginosa X239; assay: standard agar-dilution MIC assay; assay type: cell-based; details: Pseudomonas aeruginosa, X239; agar-dilution; read-out: MIC
Experimental: as §1

[9] = test system: Haemophilus influenzae 76; assay: standard agar-dilution MIC assay; assay type: cell-based; details: Haemophilus influenzae, 76
Experimental: as §1

[10] = test system: Streptococcus Group D 2041; assay: standard agar-dilution MIC assay; assay type: cell-based; details: GROUPD2041
Experimental: as §1

[11] = test system: Staphylococcus aureus X400; assay: standard agar-dilution MIC assay; assay type: cell-based; details: Staphylococcus aureus, X400
Experimental: as §1

[12] = test system: Staphylococcus aureus S13E; assay: microbe, parasite or virus in culture; assay type: cell-based; details: Staphylococcus aureus, S13E
Experimental: as §1

[13] = test system: Streptococcus pneumoniae Park I; assay: microbe, parasite or virus in culture; assay type: cell-based; details: Streptococcus pneumoniae
Experimental: as §1

[14] = test system: Staphylococcus epidermidis EPI1; assay: standard agar-dilution MIC assay; assay type: cell-based; details: Staphylococcus epidermidis, EPI1
Experimental: as §1

[15] = test system: Mycoplasma gallisepticum 36H; assay: broth-dilution microtiter MIC test; assay type: cell-based; details: Mycoplasmoides gallisepticum, 36H
Experimental: as §1

[16] = test system: Mycoplasma gallisepticum 15E; assay: broth-dilution microtiter MIC test; assay type: cell-based; details: Mycoplasmoides gallisepticum, 15E
Experimental: as §1

Streptococcus sp. 19F = assay: broth-dilution microtiter MIC test; assay type: cell-based; details: Streptococcus, SP.19F
Experimental: as §1

[17] = test system: Pasteurella hemolytica 23C; assay: broth-dilution microtiter MIC test; assay type: cell-based; details: Pasteurella, 23C; broth-dilution microtiter; read-out: MIC
Experimental: as §1

[18] = test system: Staphylococcus aureus 19C; assay: broth-dilution microtiter MIC test; assay type: cell-based; details: Staphylococcus aureus, 19C
Experimental: as §1

[19] = test system: Pasteurella multocida 17E; assay: broth-dilution microtiter MIC test; assay type: cell-based; details: Pasteurella multocida, 17E; broth-dilution microtiter; Bovine isolate; read-out: MIC
Experimental: as §1

[20] = test system: Pasteurella multocida 40G; assay: broth-dilution microtiter MIC test; assay type: cell-based; details: Pasteurella multocida, 40G; broth-dilution microtiter; read-out: MIC
Experimental: as §1

[21] = test system: Pasteurella multocida 68C; assay: broth-dilution microtiter MIC test; assay type: cell-based; details: Pasteurella multocida, 68C; broth-dilution microtiter; read-out: MIC
Experimental: as §1

[22] = test system: Pasteurella multocida 60A; assay: broth-dilution microtiter MIC test; assay type: cell-based; details: Pasteurella multocida, 60A; broth-dilution microtiter; Avian isolate; read-out: MIC
Experimental: as §1

[23] = test system: Bordetella bronchiseptica; assay: broth-dilution microtiter MIC test; assay type: cell-based; details: Bordetella bronchiseptica; broth-dilution microtiter; read-out: MIC
Experimental: as §1

[24] = test system: Pasteurella hemolytica 41D; assay: broth-dilution microtiter MIC test; assay type: cell-based; details: Pasteurella, 41D; broth-dilution microtiter; read-out: MIC
Experimental: as §1

[25] = test system: Mycoplasma gallisepticum 29C; assay: broth-dilution microtiter MIC test; assay type: cell-based; details: Mycoplasmoides gallisepticum, 29C
Experimental: as §1

Mycoplasma hyorhinis 29E = assay: broth-dilution microtiter MIC test; assay type: cell-based; details: Mycoplasma, 29E
Experimental: as §1

Mycoplasma synoviae 40A = assay: broth-dilution microtiter MIC test; assay type: cell-based; details: Mycoplasmopsis synoviae, 40A
Experimental: as §1

[26] = test system: Pasteurella hemolytica 22C; assay: broth-dilution microtiter MIC test; assay type: cell-based; details: Pasteurella, 22C; broth-dilution microtiter; read-out: MIC
Experimental: as §1

[27] = test system: Pasteurella multocida 22A; assay: broth-dilution microtiter MIC test; assay type: cell-based; details: Pasteurella multocida, 22A; broth-dilution microtiter; read-out: MIC
Experimental: as §1

[28] = test system: Streptococcus Group D 9960; assay: standard agar-dilution MIC assay; assay type: cell-based; details: GROUPD9960, read-out: MIC
Experimental: as §1

[29] = test system: Staphylococcus epidermidis EP12; assay: standard agar-dilution MIC assay; assay type: cell-based
Experimental: as §1

[30] = test system: Streptococcus pyogenes C203; assay: protection of mice experimentally infected with S. pyogenes C203; assay type: in vivo; details: mice, mg/kg × 2, doses given 1 and 4 hours postinfection, read-out: ED50
Procedure, shortened: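 Activity is given as ED50, the mg/kg dose (×2) protecting half of the mice infected with S. pyogenes C203. Compound was dosed 1 and 4 h after infection.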

[31] = agar-dilution, Ampicillin-sensitive strain, read-out: MIC
[32] = agar-dilution, Ampicillin-resistant strain, read-out: MIC

Row | Compound | MIC [1] [mg/L] | MIC [2] [mg/L] | MIC [4] [mg/L] | MIC [8] [mg/L] | MIC [10] [mg/L] | MIC [12] [mg/L] | MIC [13] [mg/L] | MIC [3] [mg/L] | MIC [14] [mg/L] | MIC [5] [mg/L] | MIC (Escherichia coli EC14; agar-dilution, read-out: MIC) [mg/L] | MIC [6] [mg/L] | MIC [7, 31] [mg/L] | MIC [9, 32] [mg/L] | MIC [11] [mg/L] | other results
1 | CCC1OC(=O)CC(O)C(C)C(OC2OC(C)C(O)C(N(C)C)C2O)C(CCN2C[C@H](C)C[C@H](C)C2)CC(C)C(=O)C=CC(C)=CC1COC1OC(C)C=CC1OC (stereo partly drawn) [Compound 45, 3",4"-Di(dehydrodeoxy)-20-deoxo-20-(cis-3,5-dimethylpiperidin-1-yl)-lactenocin] | 0.25 (≈ 0.304 µM) | 128 (≈ 156 µM) | 0.06 (≈ 0.0731 µM) | > 128 | 0.5 (≈ 0.609 µM) | 0.06 (≈ 0.0731 µM) | 0.06 (≈ 0.0731 µM) |  |  |  |  |  |  |  |  | MIC ([3]; agar-dilution, read-out: MIC): 0.12 mg/L (≈ 0.146 µM); MIC ([5]; agar-dilution, read-out: MIC): 0.12 mg/L (≈ 0.146 µM); MIC (Escherichia coli EC14): 64 mg/L (≈ 77.9 µM); MIC ([6]; agar-dilution, Penicillin-resistant strain, read-out: MIC): 0.12 mg/L (≈ 0.146 µM); MIC [7]: 1 mg/L (≈ 1.22 µM); MIC [9]: 1 mg/L (≈ 1.22 µM); MIC ([11]; agar-dilution, Methicillin-resistant strain, read-out: MIC): 0.06 mg/L (≈ 0.0731 µM)
2 | CCC1OC(=O)CC(O)C(C)C(OC2OC(C)C(OC(C)=O)C(N(C)C)C2OC(C)=O)C(CCOc2ccccc2)CC(C)C(=O)C=CC(C)=CC1COC1OC(C)C=CC1OC (centres unmarked) [Compound 42, 2',4'-Di-O-acetyl-3",4"-di(dehydrodeoxy)-20-DH-20-O-phenyl-lactenocin] | 4 (≈ 4.51 µM) | > 128 | 1 (≈ 1.13 µM) | > 128 | 4 (≈ 4.51 µM) | 4 (≈ 4.51 µM) | 1 (≈ 1.13 µM) | 1 (≈ 1.13 µM) | 1 (≈ 1.13 µM) | 0.5 (≈ 0.564 µM) | > 128 | 0.5 (≈ 0.564 µM) | > 128 | > 128 | 0.5 (≈ 0.564 µM) | 
3 | CCC1OC(=O)CC(O)C(C)C(OC2OC(C)C(O)C(N(C)C)C2O)C(CCOc2ccccc2)CC(C)C(=O)C=CC(C)=CC1COC1OC(C)C2OC(C)(C)OC2C1OC (centres unmarked) [Compound 57, 20-DH-20-O-Phenyl-lactenocin-3",4"-isopropylidene Ketal] | 32 (≈ 36.5 µM) | > 128 | 2 (≈ 2.28 µM) | > 128 | 64 (≈ 73.1 µM) | 4 (≈ 4.57 µM) | 8 (≈ 9.13 µM) | 4 (≈ 4.57 µM) | 4 (≈ 4.57 µM) | 2 (≈ 2.28 µM) | > 128 | 4 (≈ 4.57 µM) | > 128 | > 128 | 4 (≈ 4.57 µM) | 
4 | CCC1OC(=O)CC(O)C(C)C(OC2OC(C)C(O)C(N(C)C)C2O)C(CCOc2ccccc2)CC(C)C(=O)C=CC(C)=CC1COC1OC(C)C(OC(C)=O)C(OC(C)=O)C1OC (centres unmarked) [Compound 41, 3",4"-Di-O-acetyl-20-DH-20-O-phenyl-lactenocin] | 64 (≈ 69.6 µM) | > 128 | 16 (≈ 17.4 µM) | > 128 |  | 16 (≈ 17.4 µM) | 16 (≈ 17.4 µM) | 16 (≈ 17.4 µM) | 16 (≈ 17.4 µM) | 8 (≈ 8.69 µM) | > 128 | 16 (≈ 17.4 µM) | > 128 | > 128 | 16 (≈ 17.4 µM) | MIC ([10]; agar-dilution, read-out: MIC): 128 mg/L (≈ 139 µM)
5 | CCC1OC(=O)CC(O)C(C)C(OC2OC(C)C(OC3CC(C)(O)C(O)C(C)O3)C(N(C)C)C2OC(C)=O)C(CC=O)CC(C)C(=O)C=CC(C)=CC1COC1OC(C)C(OC(=O)CC(C)C)C(OC(=O)CC(C)C)C1OC (centres unmarked) [Compound 7, 2'-O-ACETYL-3'",4'"-di-O-isovaleryl-macrocin] | 16 (≈ 14.4 µM) | > 128 | 4 (≈ 3.6 µM) | > 128 |  | 8 (≈ 7.19 µM) | 2 (≈ 1.8 µM) | 8 (≈ 7.19 µM) | 8 (≈ 7.19 µM) |  | > 128 | 8 (≈ 7.19 µM) | > 128 | > 128 | 16 (≈ 14.4 µM) | MIC [15]: 50 mg/L (≈ 44.9 µM); MIC [16]: 12.5 mg/L (≈ 11.2 µM); MIC (Streptococcus sp. 19F): 3.12 mg/L (≈ 2.8 µM); MIC [17]: > 50 mg/L; MIC [18]: 12.5 mg/L (≈ 11.2 µM); MIC [19]: > 50 mg/L; MIC [20]: > 50 mg/L; MIC [21]: > 50 mg/L; MIC [22]: > 50 mg/L; MIC [23]: > 50 mg/L; MIC [24]: > 50 mg/L; MIC [25]: 3.12 mg/L (≈ 2.8 µM); MIC (Mycoplasma hyorhinis 29E): 6.25 mg/L (≈ 5.62 µM); MIC (Mycoplasma synoviae 40A): 3.12 mg/L (≈ 2.8 µM); MIC [26]: > 50 mg/L; MIC [27]: > 50 mg/L; MIC [28]: 8 mg/L (≈ 7.19 µM); MIC [29]: 8 mg/L (≈ 7.19 µM); ED50 ([30]; C203, Oral): 71.4 mg/kg; ED50 ([30]; C203, sc, Subcutaneous): > 10 mg/kg
